Assay results: patent US9102667B2, “N-arylaminomethylene benzothiophenones for treatment of cardiovascular disease” (FORSCHUNGSVERBUND BERLIN E.V., priority 2011, dated 2015)
Where two headings read alike, the source gives them in different places.

Legend:
PKA subunit RIIα = PKA subunit RIIα (Homo sapiens, UniProt P13861); assay: Microscale Thermophoresis (MST); assay type: binding; conditions: 20 mM Phosphate, pH 7.5, 100 mM NaCl, 0.05% Tween 20, 5% DMSO, 25° C.
Description: Microscale Thermophoresis (MST) were performed on a monolith NT machine (nano tember technologies, Munich, Germany) with exemplary compounds (T2/11, 15, 59) in 20 mM Phosphate, pH 7.5, 100 mM NaCl, 0.05% Tween 20 and 5% DMSO according to the general protocol provided by the manufacturer. Interaction partners were PKA subunit RIIα labelled with blue fluorescent dye NT-495; the parameters were: LED blue, LED Power 80%, Laser Power 20-80%, 25° C. A constant concentration of compounds was titrated with increasing concentrations of unlabelled PKA RIIα (50 nM, 100 nM, 250 nM, 500 nM, 1 μM, 2.5 μM, 5 μM, 10 μM, 25 μM, 50 μM, 100 μM and 200 μM).

[1] = test system: C57B1/6 mice undergoing TAC operations; assay: Transverse aortic constriction (TAC) animal model, Example 5; assay type: in vivo
Description: In male C57B1/6 mice (12-14 weeks old, average weight 26 g), high pressure overload induced by restricting the aorta following the method published by de Alameida et al. (J vis exp. 2010 Apr. 21; [38]). Control animals were treated with sham operations. The animals were observed over a period of 4 weeks after the operation, and then mini osmotic pumps were implanted intraperitoneally with a compound to be tested (0.5, 5, 50, and 100 μmol/l, corresponding to 6 μg/kg/day) (Table 2), a β1-adrenergic receptor antagonist (metoprolol; 24 mg/kg/day), a β1-adrenergic receptor […], a PDE3-inhibitor (milrinone; 3.0 mg/kg/d), and DMSO. Echocardiograms were done two and four weeks after implantation.
As expected, the narrowing of the aorta leads to cardiac hypertrophy and chronic heart failure in the 4-week period after surgery. The ejection fraction (ejection fraction; Ef) is the portion of the blood contained in the chambers of the heart that is ejected in comparison with the total volume at the end of diastole of the ventricle. […] The following groups were measured:
Animals undergoing sham operations with • only DMSO as vehicle control (solid black bar); • Compound 59, 3 μg/kg/day in DMSO (checked bar); • Compound 59, 6 μg/kg/day in DMSO (bold crosshatched bar);
Animals undergoing TAC operations with • only DMSO as vehicle control (bold vertically hatched bar); • Compound 59, 0.03 μg/kg/day in DMSO (bold diagonal hatching to upper right); • Compound 59, 0.03 μg/kg/day in DMSO (bold diagonal hatching to lower right); • Compound 59, 3 μg/kg/day in DMSO (thin diagonal hatching to upper right); • Compound 59, 6 μg/kg/day in DMSO (thin diagonal hatching to lower right);

AKAP-PKA interaction = AKAP-PKA interaction (Homo sapiens, UniProt P13861); assay: AKAP-PKA interaction (disruption) assays of Examples 1-3: alpha screen, surface plasmon resonance, ELISA (combined classification); assay type: binding
Description: The inhibition of the interaction of the alpha RII subunit of protein kinase A with AKAP18-alpha by the compounds according to the invention is determined as follows:
The experiment measures the suitability of candidate compounds for the inhibition of the interaction between AKAP and PKA. An AKAP-GST fusion construct is immobilized on glutathione donor beads and His-RII-alpha on Ni-chelate acceptor beads. To the extent that the partners interact, singlet oxygen from the donor beads becomes free and activates the fluorescence emission of the acceptor beads. The fluorescence emission determined in the microplate reader is proportional to the intensity of interaction of the protein partners. The IC50 is determined from the results of the measurement of several concentrations of one candidate compound.
The details of the process were as follows: Two protein Solutions A and B are produced in a buffer (phosphate NaCl buffer, 0.1% polysorbate 80, 0.1% [=1 mg/ml BSA]). These contain (A) the histidine-6-tagged fusion construct RII-alpha-His (3.125 nmol/l) and (B) the glutathione-S-transferase-tagged fusion construct GST-AKAP18-alpha-d2-10 (6.25 nmol/l). One volume unit each of protein solution and bead suspension are incorporated, specifically Solution A of the His6-tagged protein with Ni-chelate bead suspension and Solution B of the GST-fusion protein with glutathione beads (Perkin Elmer Product No. 6765302), and in doing so the concentrations are selected according to the manufacturers information. The Mixtures A and B obtained are incubated for one hour at room temperature (RT) in the dark.
Then, 5 μl of Mixture A is laid out for each hole on a 384-hole microtiter plate, and then to start with 0.5 μl of a solution of the candidate compound in DMSO is added and then 5 μl of Mixture B. The resulting reaction mixture is incubated 1 h at RT in the dark. Then, the reaction is tempered to 28.5° C., and the emitter intensity of the acceptor is determined in a microtiter plate reader after excitation of the donor at 680 nm.
The relative inhibition of the AKAP-PKA interaction is calculated following the formula: 1−(xc−y)/(z−y) where: X=average of readings (n=3) at concentration c; Y=average of measurement data from bead-bead check (n=6); Z=average of measurement data from protein-protein check (n=6). Results:
Surface plasmon resonance analyses for competition in solution were performed with streptavidin-coated sensor chips (GE Healthcare, Uppsala, Sweden). The N-terminal biotinylated peptide AKAP18d-L314E was used, which is a variant of the RH-binding domains of AKAP18δ (Hundsrucker et al., Biochem. J. 396, 297-306, [2006]). The binding of the regulatory subunit of the human PKAII-α or RII-β onto the peptide surface of the AKAP18δ-L314E, or the inhibition of this binding to RII by the compounds of the invention, was measured on a Biacaore 3000 machine (Biacore/GE Healthcare) as previously described (Henn et al., J Biol Chem 279, 26654-26665 [2004]). The compounds were injected for 60 sec at a flow rate of 30 μl/min, and the dissociation phase was measured for 180 sec.
Multititer plates (Corning B.V. Life Sciences, Schiphol-Rijk, Netherlands) were coated with recombinantly produced PKA RIIα (15 ng/hole) by incubation with phosphate buffer containing protease inhibitors (1 h, 22° C.). The plate was then blocked with lactoprotein.
GST-AKA7δ (Hundsrucker et al., Biochem. J. 396, 297-306, [2006]; 15 ng/well) was incubated with and without candidate compounds on the plate for 1 h at 22° C. After washing, it was incubated with antibodies (rabbit) against AKA7δ (A18δ3) and then with a peroxidase-conjugated antirabbit antibody and developed with dye substrate (LumiLight Western Blotting Substrate, Roche Diagnostics, Mannheim, Germany). Luminescence activity was determined in a microplate reader (GeniosPro, Tecan, Durham, N.C., United States) at 10 msec integration.

[2] = test system: TAC operated C57BL/6 mice; assay: Echocardiography in the TAC model, Example 5a; assay type: in vivo
Description: Protocol: For intervention 12- to 14-week-old male C57BL/6 mice (Charles River Sulzfeld) were anesthetized by 2.4% isoflurane inhalation. Transverse aortic banding (TAC) was performed by tying a 7-0 prolene suture (Ethicon) ligature around the aorta and a blunted 26-gauge needle and subsequent removal of the needle. For sham controls the suture was not tied. TAC was confirmed by echocardiography and measurement of blood flow gradient 4 weeks after surgery. Next, mini-osmotic pumps (model 1004, Alzet) with T2/15 compound/vehicle were implanted i.p. Echocardiography was performed 2 and 4 weeks with compound treatment.
For echocardiography analyses mice were anesthetized by 2.4% isoflurane inhalation and ventricular measurements were done with a VisualSonics Vevo 2100 Imaging System equipped with a 45 MHz MS-550D MicroScan transducer. The observer was unaware of the genotypes and treatments.
Differences between experimental groups were analyzed using ANOVA test followed by Bonferroni's Multiple Comparison Test using Prism Graphpad 4. Data are presented as mean±SEM. P<0.05 values were considered significant.

[3] = class from IC50 values in assays of Examples 1, 2 or 3, read-out: Activity (IC50 class)
[4] = between 0.3 and 3 μg/kg/d, vs. DMSO

Sequence of PKA subunit RIIα (P13861 whole entry): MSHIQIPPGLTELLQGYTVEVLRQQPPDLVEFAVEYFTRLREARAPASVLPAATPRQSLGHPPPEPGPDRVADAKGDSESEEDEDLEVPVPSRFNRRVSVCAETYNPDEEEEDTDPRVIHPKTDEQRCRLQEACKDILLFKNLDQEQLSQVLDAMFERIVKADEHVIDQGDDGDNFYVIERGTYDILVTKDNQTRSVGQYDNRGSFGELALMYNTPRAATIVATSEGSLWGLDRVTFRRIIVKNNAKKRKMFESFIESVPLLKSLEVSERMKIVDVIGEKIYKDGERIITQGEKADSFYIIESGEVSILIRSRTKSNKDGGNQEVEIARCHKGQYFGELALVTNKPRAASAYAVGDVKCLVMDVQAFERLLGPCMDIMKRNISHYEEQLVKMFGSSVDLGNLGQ
Sequence of AKAP-PKA interaction (P13861 2-404 limits assumed): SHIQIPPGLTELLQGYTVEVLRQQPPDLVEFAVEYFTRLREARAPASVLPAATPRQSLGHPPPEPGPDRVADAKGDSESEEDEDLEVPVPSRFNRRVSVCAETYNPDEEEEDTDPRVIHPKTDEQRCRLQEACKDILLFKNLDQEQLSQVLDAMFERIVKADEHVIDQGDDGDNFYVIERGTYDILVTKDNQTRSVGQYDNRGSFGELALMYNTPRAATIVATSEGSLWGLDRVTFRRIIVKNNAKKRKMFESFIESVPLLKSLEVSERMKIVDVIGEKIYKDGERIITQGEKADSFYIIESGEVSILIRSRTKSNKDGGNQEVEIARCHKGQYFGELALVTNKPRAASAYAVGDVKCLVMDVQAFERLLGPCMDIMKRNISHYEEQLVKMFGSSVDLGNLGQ

With `O=C(O)c1ccc(N/C=C2\Sc3ccccc3C2=O)cc1` [T2/59, 4-[[(z)-(3-oxobenzothiophene-2-ylidene)methyl]amino]benzoic acid] the Kd (PKA subunit RIIα) was 88.5 µM, the heart rate ([1]; TAC model mice) was “does not affect the heart rate” and the “ejection fraction (Ef)” value ([1]; TAC operated mice, i.p. mini osmotic pump, depending on the dose, operated without treatment 20%, healthy >60%) was 40%. The “heart weight (ratio of heart weight to the tibia length)” value ([1]; TAC operated treated mice, FIG. 2) was “falls significantly” and the IC50 (AKAP-PKA interaction; [3]) was under 250 µM.
`Cc1cnc(N/C=C2\Sc3ccccc3C2=O)s1` [T2/11, (2Z)-2-[[(5-methylthiazole-2-yl)amino]methylene]benzothiophene-3-one] was tested, and the Kd (PKA subunit RIIα) was 31.9 µM, the “IC50 relative to that of the unsubstituted mother compound” value (AKAP-PKA interaction; alkyl substituent on heteroaromatic pentacycle) was “about 50%” and the IC50 (AKAP-PKA interaction; [3]) was under 150 µM.
For `N#Cc1cnc(N/C=C2\Sc3ccccc3C2=O)s1` [T2/15, 2-[[(z)-(3-oxobenzothiophene-2-ylidene)methyl]amino]thiazole-5-carbonitrile], the cardiac function [2, 4] was “improved function”, the “heart rate or -mass” value [2, 4] was “without increasing” and the “wall dimensions and cavity diameter (IVSd, LVPWd, LVEDd)” value ([2]; echocardiography, i.p. mini-osmotic pump, 2 and 4 weeks treatment) was “no significant effect”. The “HW/TL (heart weight normalized against tibia length)” value ([2]; treatment vs. DMSO, FIG. 6) was “has an effect on HW/TL”, the Kd (PKA subunit RIIα) was 98.1 µM and the IC50 (AKAP-PKA interaction; [3]) was under 25 µM.
`NC(=O)c1cnc(N/C=C2\Sc3ccccc3C2=O)s1` [T2/19, 2-[[(z)-(3-oxobenzothiophene-2-ylidene)methyl]amino]thiazole-5-carboxylic acid amide] gave an IC50 (AKAP-PKA interaction; [3]) of under 150 µM.
Molecule `O=C(O)c1cnc(N/C=C2\Sc3ccccc3C2=O)s1` [T2/16, 2-[[(z)-(3-oxobenzothiophene-2-ylidene)methyl]amino]thiazole-5-carboxylic acid] has an IC50 (AKAP-PKA interaction; [3]) of under 250 µM.
`O=C1/C(=C/Nc2ccccc2[N+](=O)[O-])Sc2ccccc21` [T2/33, (2Z)-2-[(2-nitroanilino)methylene]benzothiophene-3-one] showed an IC50 (AKAP-PKA interaction; [3]) of under 150 µM.
`O=C(O)c1ccc(N/C=C2\Oc3ccccc3C2=O)cc1` [T2/58, 4-[[(z)-(3-oxobenzofuran-2-ylidene)methyl]amino]benzoic acid] was tested, and the “Activity (IC50 class)” value (AKAP-PKA interaction; class from IC50 values in assays of Examples 1, 2 or 3) was 4-[[(z)-(3-oxobenzofuran-2-ylidene)methyl]amino]benzoic acid Activity: B/C.
Molecule `O=C1/C(=C/Nc2nc3ccc(Br)cc3s2)Sc2ccccc21` [T2/28, (2Z)-2-[[(6-bromo-1,3-benzothiazole-2-yl)amino]methylene]benzothiophene-3-one] has an IC50 (AKAP-PKA interaction; [3]) of under 150 µM.
Work on `O=C1/C(=C/Nc2ncc([N+](=O)[O-])s2)Sc2ccccc21` [T2/12, (2Z)-2-[[(5-nitrothiazole-2-yl)amino]methylene]benzothiophene-3-one] yielded an IC50 (AKAP-PKA interaction; absolute values stated in structure-activity text, method not specified, read-out: IC50) of 1 to 5 µM and an IC50 (AKAP-PKA interaction; [3]) of under 25 µM.
Work on `Cn1c(N/C=C2\Sc3ccccc3C2=O)nc2ccccc21` [T2/3, (2Z)-2-[[(1-methylbenzimidazole-2-yl)amino]methylene]benzothiophene-3-one] yielded an IC50 (AKAP-PKA interaction; [3]) of under 150 µM.
In the case of `O=C1/C(=C/Nc2ncccn2)Sc2ccccc21` [T2/49, (2Z)-2-[(pyrimidine-2-ylamino)methylene]benzothiophene-3-one], the IC50 (AKAP-PKA interaction; [3]) is reported as under 250 µM.
